Assay [1] is described as follows: Tafel extrapolation of C-steel in 5M HCl, three-electrode cell. How it is done: (§1) Corrosion inhibition efficiency (IE % or r %) is a measure of the efficiency of an inhibitor to effectively decrease a corrosion rate. Corrosion inhibition efficiency may be measured with the Tafel extrapolation of potentiodynamic polarization (PDP).
(§2) Electrochemical experiments were carried out using the three-electrode cell assembly (FIG. 4). Tafel and AC impedance measurements were obtained to elucidate the corrosion mechanisms and understand the interactions at the solution-surface interface. The effect of adding 10 to 200 ppm Inhibitor 2 on the C-steel corrosion in 5M HCl solution was determined by AC impedance and Tafel curves (FIG. 5 and FIG. 6).
(§3) Furthermore, electrochemical parameters describing the kinetics of the corrosion process were acquired following the Tafel extrapolation method to fit the curves of FIG. 6. […] Inhibitor 2 successfully achieved 95% efficiency in the highly corrosive condition of 5M HCl at a tolerable quantity of only 200 ppm concentration.

The nature of assay [2]: AC impedance of C-steel in 5M HCl, three-electrode cell. To be noted: 200 ppm inhibitor. Details: unit not given here. How it is done:
as §2, §3

The nature of assay [3]: Tafel extrapolation (potentiodynamic polarization) of carbon steel in 1M HCl.
Description: as §1
(§4) To investigate the effect of Inhibitor 1 on corrosion mechanisms, electrochemical measurements were obtained using Tafel and A.C. impedance experiments. FIGS. 1 and 2 show Tafel and AC impedance curves of carbon steel after adding 50 to 200 ppm of Inhibitor 1 to 1M HCl solution.
(§5) The Tafel extrapolation method was used to fit the curves and obtain corrosion parameters. […] The lowest reported current density at 200 ppm concentration was 4.5 μA·cm^−2, […] than 155 μA·cm^−2 recorded for blank 1M HCl. […] The charge transfer resistance reached the maximum of 1430 Ω·cm^2 at 200 ppm and Inhibitor 1 yielded around 93% efficiency after enhancing it from 116 Ω·cm^2 for the blank solution. Inhibitor 1 is a highly efficient corrosion inhibitor even at low concentrations; at concentrations of 50 ppm and 75 ppm, it yielded an 82% and 90% efficiency, respectively.

A short description of assay [4]: AC impedance of carbon steel in 1M HCl. The following applies: 200 ppm inhibitor.
Description: as §4, §5

Where “and” joins values, the source holds several entries; their conditions need not be identical. Identical values can stand only once.

Consider 2 compounds from patent US20240360361A1, “PIPERAZINE BIS-UREA AND BIS-THIOUREA-BASED CORROSION INHIBITOR COMPOUNDS FOR STEEL PROTECTION” (QATAR UNIVERSITY, priority 2023, published 2024).

In the case of `O=[N+]([O-])c1ccc(NC(=S)NCCCN2CCN(CCCNC(=S)Nc3ccc([N+](=O)[O-])cc3)CC2)cc1` [Inhibitor 2], in assay [1] (200 ppm inhibitor), the Corrosion rate was 46 mils · year^−1 and the “Inhibition Efficiency %” value is reported as 95%. The “Charge transfer resistance (RCT)” value in assay [2] amounted to 83.4.

For the compound `O=C(NCCCN1CCN(CCCNC(=O)Nc2ccc([N+](=O)[O-])cc2)CC1)Nc1ccc([N+](=O)[O-])cc1` [Inhibitor 1], the “% Inhibition Efficiency” value in assay [3] (50 ppm inhibitor) is 82%; in assay [3] (75 ppm inhibitor), 90%; in assay [3] (100 ppm inhibitor), 92%; in assay [3] (200 ppm inhibitor), 97%. Further, the Corrosion rate in assay [3] (50 ppm inhibitor) is 13 mils · year^−1; in assay [3] (75 ppm inhibitor) it was 6.8 mils · year^−1; in assay [3] (100 ppm inhibitor) it was 5.5 mils · year^−1; in assay [3] (200 ppm inhibitor), 2 mils · year^−1 and 2.0 mils · year^−1; in assay [1] (10 ppm inhibitor), 360 mils · year^−1; in assay [1] (50 ppm inhibitor) it was 196 mils · year^−1. In addition, the Corrosion rate in assay [1] (100 ppm inhibitor) was 96 mils · year^−1; in assay [1] (200 ppm inhibitor), 46 mils · year^−1. Moreover, the Current density was 29 μA · cm^−2 in assay [3] (50 ppm inhibitor); 15 μA · cm^−2 in assay [3] (75 ppm inhibitor); 12 μA · cm^−2 in assay [3] (100 ppm inhibitor); 4.5 μA · cm^−2 in assay [3] (200 ppm inhibitor); 787 μA · cm^−2 in assay [1] (10 ppm inhibitor); 429 μA · cm^−2 in assay [1] (50 ppm inhibitor). Besides, the values for the Current density in assay [1] (100 ppm inhibitor) and in assay [1] (200 ppm inhibitor) were 209 μA · cm^−2 and 100 μA · cm^−2, respectively. Besides, the “Inhibition Efficiency %” value in assay [1] (10 ppm inhibitor) is 57%; in assay [1] (50 ppm inhibitor), 77%; in assay [1] (100 ppm inhibitor), 89%; in assay [1] (200 ppm inhibitor) it was 95%. In assay [1] (200 ppm inhibitor), the “Reduction of current density versus 5M HCl blank” value is reported as “about 18.5 fold”. Besides, in assay [4], the Charge transfer resistance is recorded as 1430 Ω·cm^2. For the same compound, in assay [4], the “Efficiency from charge transfer resistance (AC impedance)” value is reported as “around 93%”.
